Laboratory results from patent US20260167679A1, “FUSION PROTEIN TARGETING MITOCHONDRIA, METHOD OF MAKING AND USE THEREOF” (UNIVERSITY OF ROCHESTER, priority 2020, published 2026).

What was measured:
Assay type in all cases: in vivo, Caenorhabditis elegans
[1] = system: C. elegans; test: ETC inhibitor assays, survival of animals
Procedure: Experiments were performed on at least three separate days, using 15-100 young adult animals per plate. Seeded plates were supplemented with rotenone (50 μM final concentration), antimycin A (50 μM final concentration), or oligomycin A (31 μM final concentration) 24 h before animals were transferred onto them. For azide toxicity, animals were placed in M9 buffer with 250 mM azide. Control plates were kept in the dark, and experimental plates were exposed to 1 Hz light (Quantum LED, 0.02 mW/mm^2) for the duration of the experiment. For all toxins, animals that were moving or those that moved in response to a light touch to the head were scored as alive. For rotenone, surviving animals were scored after 5 h. For antimycin A, animals were scored 16 h after exposure. For azide, animals were exposed for 1 h in M9 and allowed to recover for 1 h on a seeded culture plate and then survival was scored. Azide experimental plates were exposed to light (XCite LED, 0.19 mW/mm^2) for the duration of azide treatment and recovery. […]. For oligomycin A, animals were scored 18 h after exposure.
(§1) Experiments were carried out using a hypoxic chamber (Coy Laboratory Products, 5%/95% H2/N2 gas, palladium catalyst) at 26° C. with 50-100 animals per plate. O2 was <0.01%. Hypoxic preconditioning (PC) duration was 4 h, and control animals were incubated at 26° C. in room air for the same time. 1 Hz illumination (Quantum LED, 0.02 mW/mm^2) was carried out during PC period or during the hypoxic period. Hypoxic exposure was for 18.5, 21 h after PC. Twenty-four hours after hypoxia exposure, animals that were moving or those that moved in response to a light touch to the head were scored as alive. Data from days where PC was at least 15% effective for both +ATR and −ATR were used. Animals supplemented with ATR were allowed to lay eggs onto plates with no ATR that were subsequently used for HR experiments to minimize confounding effects of ATR. ATR from the parent animal was sufficient to provide active mtON in progeny as tested by the azide toxin assay described above. […] FCCP dissolved in ethanol was deposited onto seeded NGM plates.

[2] = system: C. elegans; test: Lifespan of mtON-expressing worms
Excerpt: Light treatment began at day 1 of adulthood for all experiments, a, Survival curves of mtON-expressing animals (extrachromosomal array). […] One-way ANOVA with Tukey's test; n=30 animals for day 4 conditions and 40 animals for day 10. […] The dotted arrow represents the molecular mechanisms to be investigated that link Δψm to aged physiology.
A) survival curve with the same conditions as FIG. 15B, but with light intensity (0.005 mW/cm2) below the threshold for mtON activation (0.01 mW/cm2). […] B) Survival curves of mtON-expressing animals versus mtON-expressing animals in a long-lived genetic background containing a constitutively active AMPK mutation.
Strain APW32 expresses mtON as an extrachromosomal array (mtON ext. chr. array), and strain APW273 expresses mtON in single copy through CRISPR/Cas9 genome integration (mtON CRISPR). See methods section for genotype details. Light intensity was varied to maintain temperature as best as possible, and proximal temperature readings directly adjacent to assay plates are reported to show local temperature variability from different incubators and from different light sources. All incubators were set to 20° C.

[3] = system: C. elegans; test: Hypoxia and reoxygenation with hypoxic preconditioning; conditions: +ATR, baseline survival, n=12 independent experiments
Procedure: as §1

Row | SMILES | survival ([1]; 50 μM rotenone for 5 hours, +ATR −light (ATR alone)) | survival ([1]; azide toxin assay, progeny of ATR-supplemented parents, +ATR −light) [%] | lifespan ([2]; ATR and light in wild-type animals) | lifespan or physiology ([2]; ATR supplementation alone) | survival after hypoxia and reoxygenation (baseline) [3] | lifespan ([2]; FCCP on its own)
1 | CC1=C(/C=C/C(C)=C/C=C/C(C)=C/C=O)C(C)(C)CCC1 [ATR, all trans-retinal, reference compound] | protective | 27.5 | did not affect lifespan | does not affect lifespan or physiology | 49.7+/−20.3% | –
2 | N#CC(C#N)=NNc1ccc(OC(F)(F)F)cc1 [FCCP, carbonyl cyanide p-(trifluoromethoxy)phenylhydrazone, reference compound] | – | – | – | – | – | no effect on lifespan
